Some results are limits rather than exact numbers.

Test [1] concerns the target T1, β5 subunit of the human constitutive proteasome (CPS) (Homo sapiens, UniProt P28074).
T1 construct: purchased Boston Biochem E-360
In words: β5 inhibition assay, human constitutive proteasome (Suc-LLVY-AMC). It is filed as biochemical. The settings on record: IC50 class, Suc-LLVY-AMC substrate. On the procedure:
The enzymatic activity of the β5 subunit of the human constitutive proteasome (CPS) is analyzed. In another assay, which differs from the assay of the human constitutive proteasome only in using the human immunoproteasome (IPS) the enzymatic activity of the β5 subunit of the human immunoproteasome (IPS) is analyzed. […] Inhibition is indicated as IC50 [nM] (“-”=not measured).

For test [2], the system named is Hs 746T (human gastric carcinoma cell line). In words: 48 hr CTG viability assay, Hs 746T. Format: cell-based. As to conditions: Hs746T, 48 hr CTG, read-out: Hs 746T IC50. A digest of the protocol:
(§1)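 Growth inhibition by compound over 48 h; IC50 (nM) derived from duplicate CellTiter-Glo luminescence readings across 0.0015–10 uM.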

For test [3], the system named is A549 (human lung carcinoma cell line). In words: Glo assay of A549 cells (Table 3; ProteasomeGlo plating scheme). The settings on record: Homo sapiens; A549 cells; read-out: PGLo A549. It is filed as cell-based. The essentials:
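Luminescent read-out of cellular chymotrypsin-like proteasome activity: cells exposed to compound 105 min at 37° C., 5% CO2, then given Suc-LLVY-Glo reagent, shaken 2-5 min and kept dark 10-15 min before reading. Values are IC50 [nM].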

Test [4] concerns the target T2, β5 subunit of the human immunoproteasome (IPS) (Homo sapiens, UniProt P28062).
T2 construct: purchased Boston Biochem E-370
In words: β5 inhibition assay, human immunoproteasome (Suc-LLVY-AMC). It is filed as biochemical. The settings on record: IC50 class, Suc-LLVY-AMC substrate. The essentials:
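Human immunoproteasome (1 nM final) was preincubated 10 min at RT with compound in 100 mM HEPES pH 7.5, 50 mM NaCl, 0.02% SDS, 1 mM DTT. Suc-LLVY-AMC (22.6 μM final) was then added for 4 h at RT in the dark. After stopping with 1 μM bortezomib, AMC fluorescence was read (ex 355/em 460 nm).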

The subject of test [5] is MM1 S (B lymphoblast cell line). In words: 48 hr CTG viability assay, MM1S. It is filed as cell-based. As to conditions: Homo sapiens, 48 hr CTG, read-out: MM1S IC50. A digest of the protocol:
as §1

Test [6] relates to RPMI 8226 (B lymphocyte cell line, multiple myeloma). In words: 48 hr CTG viability assay, RPMI 8226. Format: cell-based. As to conditions: Homo sapiens, RPMI-8226; 48 hr CTG; read-out: RPMI-8226 IC50. A digest of the protocol:
as §1

As for `Cc1ccc2cc1CNC(=O)[C@H](CCc1ccccc1)NC(=O)[C@@H](NC(=O)CCNC(=O)C1CC3(CCC3)C1)CC(=O)N1CCCC(CCO2)C1` (stereo partly drawn) [Compound 616, N-(3-(((9S,12S)-5^4-methyl-8,11,14-trioxo-9-phenethyl-4-oxa-7,10-diaza-1(3,1)-piperidina-5(1,3)-benzenacyclotetradecaphane-12-yl)amino)-3-oxopropyl)spiro[3.3]heptane-2-carboxamide], the IC50 in test [1], in test [2], in test [3], in test [4], in test [5] and in test [6] was < 100 nM throughout.

As to `Cc1ccc2cc1CNC(=O)[C@H](CCc1ccccc1)NC(=O)[C@@H](NC(=O)C1(C)CNC1)CC(=O)N1CCCC(CCO2)C1` (stereo partly drawn) [Compound 715, 3-methyl-N-((9S,12S)-5^4-methyl-8,11,14-trioxo-9-phenethyl-4-oxa-7,10-diaza-1(3,1)-piperidina-5(1,3)-benzenacyclotetradecaphane-12-yl)azetidine-3-carboxamide], the IC50 was < 100 nM in test [1]; 100 to 500 nM in test [2]; < 100 nM in test [3]; < 100 nM in test [4]; < 100 nM in test [5]; < 100 nM in test [6].

For `Cc1ccc2cc1CNC(=O)[C@H](CCC(C)C)NC(=O)[C@@H](NC(=O)Cc1cn3ccsc3n1)CC(=O)N1CCCC(CCO2)C1` (stereo partly drawn) [Compound 583, 2-(imidazo[2,1-b]thiazol-6-yl)-N-((9S,12S)-9-isopentyl-5^4-methyl-8,11,14-trioxo-4-oxa-7,10-diaza-1(3,1)-piperidina-5(1,3)-benzenacyclotetradecaphane-12-yl)acetamide], the IC50 in test [1], in test [2], in test [3], in test [4], in test [5] and in test [6] was < 100 nM in each case.

As to `Cc1ccc2cc1CNC(=O)[C@H](C1Cc3ccccc3C1)NC(=O)[C@@H](NC(=O)Cc1cn3ccsc3n1)CC(=O)N1CCCC(CCO2)C1` (stereo partly drawn) [Compound 602, N-((9S,12S)-9-(2,3-dihydro-1H-inden-2-yl)-5^4-methyl-8,11,14-trioxo-4-oxa-7,10-diaza-1(3,1)-piperidina-5(1,3)-benzenacyclotetradecaphane-12-yl)-2-(imidazo[2,1-b]thiazol-6-yl)acetamide], the IC50 in test [1], in test [2], in test [3], in test [4], in test [5] and in test [6] was < 100 nM each time.

In the case of `Cc1ccc2cc1CNC(=O)[C@H](CCc1ccccc1)NC(=O)[C@@H](NC(=O)N1CC(C)(O)C1)CC(=O)N1CCCC(CCO2)C1` (stereo partly drawn) [Compound 669, 3-hydroxy-3-methyl-N-((9S,12S)-5^4-methyl-8,11,14-trioxo-9-phenethyl-4-oxa-7,10-diaza-1(3,1)-piperidina-5(1,3)-benzenacyclotetradecaphane-12-yl)azetidine-1-carboxamide], the IC50 in test [1], in test [2], in test [3], in test [4], in test [5] and in test [6] was < 100 nM in each case.

In the case of `COc1ccc(OCCC(=O)N[C@H]2CC(=O)N3CCCC(CCOc4ccc(C)c(c4)CNC(=O)[C@H](CCc4ccccc4)NC2=O)C3)cc1` (stereo partly drawn) [Compound 622, 3-(4-methoxyphenoxy)-N-((9S,12S)-5^4-methyl-8,11,14-trioxo-9-phenethyl-4-oxa-7,10-diaza-1(3,1)-piperidina-5(1,3)-benzenacyclotetradecaphane-12-yl)propanamide], the IC50 in test [1], in test [2], in test [3], in test [4], in test [5] and in test [6] was < 100 nM in each case.

Consider `Cc1ccc2cc1CNC(=O)[C@H](CCc1ccccc1)NC(=O)[C@@H](NC(=O)CCNCc1cccc(N3CCOCC3)c1)CC(=O)N1CCCC(CCO2)C1` (stereo partly drawn) [Compound 665, N-((9S,12S)-5^4-methyl-8,11,14-trioxo-9-phenethyl-4-oxa-7,10-diaza-1(3,1)-piperidina-5(1,3)-benzenacyclotetradecaphane-12-yl)-3-((3-morpholinobenzyl)amino)propanamide], for which the IC50 in test [1], in test [2], in test [3], in test [4], in test [5] and in test [6] was < 100 nM each time.

With `CC(=O)N1CC(CC(=O)N[C@H]2CC(=O)N3CCCC(CCOc4ccc(C)c(c4)CNC(=O)[C@H](CCc4ccccc4)NC2=O)C3)C1` (stereo partly drawn) [Compound 697, 2-(1-acetylazetidin-3-yl)-N-((9S,12S)-5^4-methyl-8,11,14-trioxo-9-phenethyl-4-oxa-7,10-diaza-1(3,1)-piperidina-5(1,3)-benzenacyclotetradecaphane-12-yl)acetamide], the IC50 in test [1], in test [2], in test [3], in test [4], in test [5] and in test [6] was < 100 nM throughout.

Consider `C#CCC[C@@H]1NC(=O)[C@@H](NC(=O)Cc2cn3ccsc3n2)CC(=O)N2CCCC(CCOc3ccc(C)c(c3)CNC1=O)C2` (stereo partly drawn) [Compound 686, N-((9S,12S)-9-(but-3-yn-1-yl)-5^4-methyl-8,11,14-trioxo-4-oxa-7,10-diaza-1(3,1)-piperidina-5(1,3)-benzenacyclotetradecaphane-12-yl)-2-(imidazo[2,1-b]thiazol-6-yl)acetamide], for which the IC50 in test [1], in test [2], in test [3], in test [4], in test [5] and in test [6] was < 100 nM in each case.

On to `COc1cccc(OCCC(=O)N[C@H]2CC(=O)N3CCCC(CCOc4ccc(C)c(c4)CNC(=O)[C@H](CCc4ccccc4)NC2=O)C3)c1` (stereo partly drawn) [Compound 587, 3-(3-methoxyphenoxy)-N-((9S,12S)-5^4-methyl-8,11,14-trioxo-9-phenethyl-4-oxa-7,10-diaza-1(3,1)-piperidina-5(1,3)-benzenacyclotetradecaphane-12-yl)propanamid], for which the IC50 in test [1], in test [2], in test [3], in test [4], in test [5] and in test [6] was < 100 nM each time.

For `Cc1ccc2cc1CNC(=O)[C@H](CCc1ccccc1)NC(=O)[C@@H](NC(=O)CCOC1CCCC1)CC(=O)N1CCCC(CCO2)C1` (stereo partly drawn) [Compound 629, 3-(cyclopentyloxy)-N-((9S,12S)-5^4-methyl-8,11,14-trioxo-9-phenethyl-4-oxa-7,10-diaza-1(3,1)-piperidina-5(1,3)-benzenacyclotetradecaphane-12-yl)propanamide], the IC50 in test [1], in test [2], in test [3], in test [4], in test [5] and in test [6] was < 100 nM throughout.

Values taken from patent US20240415819A1, “MACROCYCLIC COMPOUNDS AS PROTEASOME SUBUNIT BETA TYPE-5 INHIBITORS” (Lead Discovery Center GmbH, priority 2021, published 2024).
